Source: ChEMBL document CHEMBL1147332, “Screening of marine invertebrates for the presence of ergosterol-sensitive antifungal compounds” (1993)
Calls of active or inactive are those of the source. The rule behind the calls is not given here.

Tests used:
Candida albicans [1] = assay: Antifungal activity against Candida albicans after 16 to 19 hrs by disk diffusion assay; format: functional, organism-based
Candida albicans [2] = assay: Antifungal activity against Candida albicans at <= 1 ug after 16 to 19 hrs by disk diffusion assay; format: functional, organism-based
Candida albicans [3] = assay: Antifungal activity against Candida albicans after 16 to 19 hrs by disk diffusion assay in presence of 100 ppm ergosterol; format: functional, organism-based
Candida albicans [4] = assay: Antifungal activity against Candida albicans at 2 ug after 16 to 19 hrs by disk diffusion assay in presence of 20 ppm ergosterol; format: functional
Candida albicans [5] = assay: Antifungal activity against Candida albicans at 1 ug after 16 to 19 hrs by disk diffusion assay in presence of increasing concentration of ergosterol; format: functional, organism-based
Candida albicans [6] = assay: Antifungal activity against Candida albicans at 5 ug after 16 to 19 hrs by disk diffusion assay in presence of 120 ppm ergosterol; format: functional

Structure (SMILES)	Activity (Candida albicans [1])	Activity (Candida albicans [2])	also measured
CO[C@H]([C@H](C)/C=C/N(C)C=O)[C@@H](C)C(=O)CC[C@H](C)[C@H](C[C@@H]1OC(=O)C[C@@H](OC(N)=O)C[C@H](C)C[C@H](O)[C@H](C)[C@@H](OC)c2coc(n2)-c2coc(n2)-c2coc(n2)/C=C/C[C@H](OC)[C@H]1C)OC	inactive	Active	–
Clc1ccc(COC(Cn2ccnc2)c2ccc(Cl)cc2Cl)c(Cl)c1 (stereo not drawn)	–	–	Activity (Candida albicans [3]): Active
C[C@@H]1[C@H](O)[C@@H](C)/C=C/C=C/C=C/C=C/C=C/C=C/C=C/[C@H](O[C@@H]2O[C@H](C)[C@@H](O)[C@H](N)[C@@H]2O)C[C@@H]2O[C@](O)(C[C@@H](O)C[C@@H](O)[C@H](O)CC[C@@H](O)C[C@@H](O)CC(=O)O[C@H]1C)C[C@H](O)[C@H]2C(=O)O [AMPHOTERICIN B]	–	–	Activity (Candida albicans [4]): 50%; Activity (Candida albicans [5]): Active
C/C1=C\[C@H](C)C[C@H](C)OC(=O)C[C@H](c2ccc(O)cc2)NC(=O)[C@@H](Cc2c(Br)[nH]c3ccccc23)N(C)C(=O)[C@H](C)NC(=O)[C@@H](C)C1 [JASPAMIDE]	inactive	Active	Activity (Candida albicans [6]): 50%
